Data taken from paper PMC6105827, “Antitrypanosomal 8-Hydroxy-Naphthyridines Are Chelators of Divalent Transition Metals” (Antimicrobial Agents and Chemotherapy, 2018).
Where two headings read alike, the source gives them in different places.

Tests used:
[1] = Cell-free fluorescence-based (FluoZin-3 salt) zinc binding assay; conditions: compounds and DFMO 1 to 100 μM; TPEN 10 μM
Experimental: ZnCl2 (5 μM) was incubated with various concentrations of our three 8-HNT compounds followed by the addition of 125 nM FluoZin-3 salt dye. Reaction mixtures were preincubated for 20 min at RT and then aliquoted into a black 96-well plate. Fluorescence was then measured with a Pherastar spectrophotometer (excitation at 485 nm and emission at 520 nm). Calculations were carried out in Excel.

[2] = tested on: T. brucei bloodstream forms; assay: microbe, parasite or virus in culture; conditions: for Maximum concentration of metal salt having a minimal impact on cell growth: T. brucei
Experimental: (§1) The clonal Leishmania donovani cell line LdBOB (derived from MHOM/SD/62/1S-CL2D) was grown as promastigotes at 28°C, as described previously ([53]). Bloodstream-form T. brucei MiTat 1.2 clone 221a and its derived subline, 2T1, were cultured at 37°C in the presence of 5% CO2 in HMI9-T medium, as described previously ([54]). The human carcinoma HepG2 cell line was grown at 37°C with 5% CO2 in minimal Eagle's medium (MEM) with GlutaMAX (1×; Sigma-Aldrich), nonessential amino acids (Sigma-Aldrich), and 10% FBS. Human HepG2 and THP-1 cells used in this study were ethically sourced from the ATCC.
(§2) L. donovani intramacrophage ([7]), HepG2 ([55]), T. brucei ([56]), and L. donovani promastigote ([57]) compound sensitivity assays were carried out as described previously. Human HepG2 and THP-1 cells used in these assays were provided by the ATCC. Data were processed by using GRAFIT (version 5.0.4; Erithacus Software) and fitted to a 2-parameter equation to obtain the effective concentration inhibiting growth by 50% (EC50). Data are presented as the means of results from at least two independent experiments.
(§3) In the first instance, the maximum tolerated concentrations of ZnCl2, CaCl2, CuCl2, MgCl2, MnCl2, and FeCl2 were determined for each cell type. […] Standard drug sensitivity assays were carried out (as described above) for each cell type with compounds 1, 2, and 3 in the presence and absence of the maximum tolerated concentration of metal salt.

[3] = tested on: L. major; design: method as in PMID 7768775; conditions: cited from earlier work
[4] = tested on: T. brucei; design: method as in PMID 11849643; conditions: cited from earlier work
[5] = tested on: L. donovani; conditions: cited from earlier work
[6] = tested on: L. donovani promastigotes; assay: L. donovani promastigote compound sensitivity assay (with/without metal salts); conditions: for EC50: Leishmania donovani; for Shift: promastigotes
Experimental: as §1, §2, §3

[7] = tested on: L. donovani intramacrophage amastigotes; assay: L. donovani intramacrophage compound sensitivity assay; assay type: cell-based; conditions: Leishmania donovani; L. donovani intramacrophage amastigotes; ≥3 independent replicates; read-out: Intra-macrophage EC50
Experimental: as §2

[8] = Spectrophotometric UV-Vis titration and Job's plot of binding to divalent cations; assay type: physicochemical; conditions: combined concentration 200 μM in methanol; absorbance 475/390/375 nm
Experimental: UV-visible (UV-Vis) titrations were carried out essentially as described previously ([65], [66]). Aliquots of metal divalent cations (concentrated stocks were made initially in water and then diluted in methanol) were added to a fixed concentration of 50 μM 8-HNT compound in methanol. After each aliquot addition, the incubation mixture was left to stabilize for 5 min at 25°C prior to scanning. Wavelength scanning was carried out at between 260 and 510 nm by using a UV-2401 PC UV-Vis spectrophotometer (Shimadzu). For Job's plot analyses ([66]), the combined concentration of 8-HNT and cation was fixed at 200 μM, and only the molar ratio of cation versus 8-HNT compound varied. Changes of the absorption at 475, 390, and 375 nm were indicative of cation complex formation with compounds 1 to 3, respectively. Specific absorbance at these wavelengths was determined and plotted against the molar ratio of compound to cation to determine complex stoichiometry ([66]).

[9] = tested on: L. donovani promastigotes; assay: Generation of an 8-HNT-resistant L. donovani cell line; assay type: cell-based, Leishmania donovani
Experimental: Resistant lines were generated as described previously ([31]), using compound 2 in L. donovani promastigotes. Starting at a sublethal concentration of 1 μM compound 2 in 3 independent cultures, concentrations were increased in a stepwise manner. However, after a total of 270 days in culture, promastigotes were unable to grow in ≥10 μM compound 2.

[10] = tested on: THP-1 cells; assay: THP-1 cell sensitivity; assay type: cell-based; conditions: Homo sapiens
Experimental: as §2

[11] = tested on: HepG2 cells; assay: HepG2 compound sensitivity assay (with/without ZnCl2); conditions: for EC50: Homo sapiens
Experimental: as §1, §2, §3

[12] = read-out: EC50 values, WT, promastigotes, absence of cation, FeCl2 experiment
[13] = read-out: EC50 values, WT, promastigotes, absence of cation, ZnCl2 experiment
[14] = read-out: L. donovani pro EC50, promastigotes (Fig. 1)
[15] = Trypanosoma brucei, read-out: Mean EC50 ± SD, Plus cation, plus CaCl2 (3 mM)
[16] = Trypanosoma brucei, read-out: Mean EC50 ± SD, Plus cation, plus CuCl2 (5 μM)
[17] = Trypanosoma brucei, read-out: Mean EC50 ± SD, Plus cation, plus MgCl2 (1 mM)
[18] = Trypanosoma brucei, read-out: Mean EC50 ± SD, Plus cation, plus MnCl2 (10 μM)
[19] = Trypanosoma brucei, read-out: Mean EC50 ± SD, WT, absence of cation, CaCl2 experiment
[20] = Trypanosoma brucei, read-out: Mean EC50 ± SD, WT, absence of cation, CuCl2 experiment
[21] = Trypanosoma brucei, read-out: Mean EC50 ± SD, WT, absence of cation, FeCl2 experiment
[22] = Trypanosoma brucei, read-out: Mean EC50 ± SD, WT, absence of cation, MgCl2 experiment
[23] = Trypanosoma brucei, read-out: Mean EC50 ± SD, WT, absence of cation, MnCl2 experiment
[24] = Trypanosoma brucei, read-out: Mean EC50 ± SD, WT, absence of cation, ZnCl2 experiment
[25] = Trypanosoma brucei, read-out: T. brucei bsf EC50, bloodstream form (Fig. 1)

SMILES	Maximum concentration of metal salt having a minimal impact on cell growth [2]	EC50 [6, 12]	EC50 [6, 13]	EC50 [6, 14]	Shift ([6]; FeCl2 (100 μM) vs WT)	Shift ([6]; ZnCl2 (100 μM) vs WT)	EC50 [7]	Job's plot intercept, molar fraction (compound to Zn^2+) [8]	Shift (fold) ([2]; CaCl2 (3 mM) vs WT)	Shift (fold) ([2]; CuCl2 (5 μM) vs WT)	Shift (fold) ([2]; FeCl2 (10 μM) vs WT)	Shift (fold) ([2]; MgCl2 (1 mM) vs WT)	Shift (fold) ([2]; MnCl2 (10 μM) vs WT)	EC50 [2, 15]	EC50 [2, 16]	EC50 [2, 17]	EC50 [2, 18]	EC50 [2, 19]	EC50 [2, 20]	EC50 [2, 21]	also measured
NCCCC(N)(C(=O)O)C(F)F (stereo not shown) [DFMO, difluoromethylornithine, reference compound]	–	–	–	–	–	–	–	–	–	–	–	–	–	–	–	–	–	–	–	–	Cell-free FluoZin-3 fluorescence (competition for Zn^2+ binding) [1]: did not affect the fluorescence levels; Effect of exogenous divalent cations, including Fe^2+ and Zn^2+, on potency against T. brucei ([2]; control): failed to alter the potency; EC50 ([2]; read-out: EC50 against bloodstream-form T. brucei, substance alone (Fig. S2), mean ± SEM): 39500 ± 900 nM
[Cl][Cu][Cl] [CuCl2]	5 µM	–	–	–	–	–	–	–	–	–	–	–	–	–	–	–	–	–	–	–	–
[Ca+2].[Cl-].[Cl-] [CaCl2]	3000 µM	–	–	–	–	–	–	–	–	–	–	–	–	–	–	–	–	–	–	–	–
CC(=O)N(O)CCCCCNC(=O)CCC(=O)N(O)CCCCCNC(=O)CCC(=O)N(O)CCCCCN [deferoxamine]	–	–	–	–	–	–	–	–	–	–	–	–	–	–	–	–	–	–	–	–	Growth inhibition of L. major in vitro [3]: inhibits the growth; Growth inhibition of T. brucei in vitro [4]: inhibit the growth; Growth inhibition of L. donovani in vitro [5]: inhibit the growth
COc1ccccc1-c1nc(-c2nc(C)n[nH]2)c(O)c2ncccc12 [Compound 2]	–	100 ± 10 nM	200 ± 40 nM	180 nM	6.8 fold	265.7 fold	600 nM	0.31	1.0 fold	0.9 fold	2.4 fold	1.1 fold	0.8 fold	1300 ± 60 nM	1300 ± 60 nM	900 ± 20 nM	1200 ± 50 nM	1200 ± 40 nM	1400 ± 70 nM	700 ± 60 nM	Concentration in which promastigotes were unable to grow ([9]; after 270 days in culture, start 1 μM): ≥ 10 µM; Development of resistance in L. donovani promastigotes ([9]; stepwise increasing concentrations over a 9-month period): could not develop any resistance; EC50 [2, 22]: 800 ± 50 nM; EC50 [2, 23]: 1400 ± 90 nM; EC50 [2, 24]: 800 ± 50 nM; EC50 [2, 25]: 790 nM; Shift (fold) ([2]; ZnCl2 (200 μM) vs WT): 19.7 fold; EC50 [10]: > 50000 nM; Shift of EC50 for HepG2 cells by ZnCl2 ([11]; 100 μM ZnCl2): 7 fold; EC50 ([11]; HepG2, read-out: EC50 for HepG2 cells, absence of exogenous ZnCl2): 47800 ± 3600 nM; EC50 ([11]; HepG2, read-out: HepG2 EC50): 15900 nM
CC(NC(=O)c1ncc2cccnc2c1O)c1ccc(F)cc1 (stereo not shown) [Compound 3]	–	100 ± 4 nM	200 ± 10 nM	220 nM	1.9 fold	120.1 fold	200 nM	0.35	0.9 fold	1.1 fold	3.7 fold	0.9 fold	1.3 fold	700 ± 40 nM	800 ± 60 nM	700 ± 50 nM	1010 ± 40 nM	800 ± 100 nM	800 ± 50 nM	900 ± 30 nM	EC50 [2, 22]: 800 ± 50 nM; EC50 [2, 23]: 800 ± 50 nM; EC50 [2, 24]: 500 ± 30 nM; EC50 [2, 25]: 520 nM; Shift (fold) ([2]; ZnCl2 (200 μM) vs WT): 12.0 fold; EC50 [10]: > 16000 nM; EC50 ([11]; HepG2, read-out: HepG2 EC50): 16100 nM
